Test results: US8258309B2, “Azapeptide derivatives” (priority 2007, dated 2012)
Where two headings read alike, the source gives them in different places. One block for each compound: values may come before it.

Key:
[1] = Microsomal assay: stability in human liver microsomes; assay type: in vitro ADME; conditions: for half-life at 1 μM: liver microsomes
Method: Microsomal Assay. Human liver microsomes (20 mg/mL, pool of 50 individuals) were obtained from Xenotech LLC (Lenexa, Kans.). The incubation mixtures are prepared as follows. Stock solutions (10 mM) solutions of test Compounds 103, 106, 122 and of atazanavir were prepared in DMSO. The 10 mM stock solutions were diluted to 1 mM in acetonitrile (ACN). […] The microsome-test compound mixtures were added to wells of a 2 mL 96-well deep well polypropylene plate in triplicate. The plate was warmed to 37° C. before initiating the reactions by addition of prewarmed NADPH in 0.1 M potassium phosphate buffer, pH 7.4, containing 3 mM MgCl2. The final reaction mixture composition contained: • Liver Microsomes 0.5 mg/mL • NADPH 2 mM • Potassium Phosphate, pH 7.4 100 mM • Magnesium Chloride 3 mM • Test Compound 1.0 μM. The reaction mixtures were incubated at 37° C. and 50 μL aliquots were removed at 0, 3, 7, 12, 20, and 30 minutes and added to shallow-well 96-well plates which contained 50 μL of ice-cold ACN with internal standard to stop the reactions. The plates were stored at −20° C. for 30 minutes, after which 100 μL of water was added to the wells of the plate before centrifugation to pellet precipitated proteins. Supernatants were transferred to another 96-well plate and analyzed for amounts of parent remaining by LC-MS/MS using an Applied Biosystems API 4000 mass spectrometer. […] Data analysis was performed using Microsoft Excel Software. […] The results are shown in FIGS. 2 and 3 and in Table 3, below: […]

[2] = test system: HIV-1RF; experiment: HIV anti-viral activity in CEM-SS cells infected with HIV-1 (XTT); assay type: cell-based
Method: The HIV antiviral activity of compound of the present invention was tested in CEM-SS cells infected with HIV-1. CEM-SS cells were passaged in T-75 flasks in RPMI 1640 medium supplemented with 10% heat inactivated fetal bovine serum, 2 mmol/L L-glutamine, 100 U/mL penicillin and 100 flg/mL streptomycin prior to use in the antiviral assay. On the day preceding the assay, the cells were split 1:2 to assure they were in an exponential growth phase at the time of infection. Total cell and viability quantification was performed using a hemocytometer and Trypan Blue dye exclusion. Cell viability was greater than 95% for the cells to be utilized in the assay. The cells were resuspended at 5×10^4 cells per mL in tissue culture medium and added to the drug-containing microtiter plates in a volume of 50 μL.
The virus used for the assay was the lymphocyte-tropic virus strain HIV-IRF. The virus was obtained from the NIH AIDS Research and Reference Reagent Program and stock virus pools were produced in CEM-SS cells. A pre-titered aliquot of virus was removed from the freezer (−80° C.) and allowed to thaw slowly to room temperature in a biological safety cabinet. Virus was resuspended and diluted into tissue culture medium such that the amount of virus added to each well in a volume of 50 μL was the amount determined to yield 85 to 95% cell killing at 6 days post-infection.
Each plate contains cell control wells (cells only), virus control wells (cells plus virus), compound toxicity wells (cells plus compound only), compound colorimetric control wells (compound only) as well as experimental wells (compound plus cells plus virus). Samples were tested in triplicate with eleven half-log dilutions per compound starting at 0.1 μM of compound. Compounds 104, 120 and 122 were tested, as was atazanavir and AZT. […]
Following incubation at 37° C. in a 5% CO2 incubator, the test plates were stained with the tetrazolium dye XTT (2,3-bis(2-methoxy-4-nitro-5sulfophenyl)-5-[(phenylamino)carbonyl]-2H-tetrazolium hydroxide). XTT-tetrazolium was metabolized by the mitochondrial enzymes of metabolically active cells to a soluble formazan product, allowing rapid quantitative analysis of the inhibition of HIV induced cell killing by anti-HIV test substances. XTT solution was prepared daily as a stock of 1 mg/mL in RPMI 1640. Phenazine methosulfate (PMS) solution was prepared at 0.15 mg/mL in PBS and stored in the dark at −20° C. XTT/PMS stock was prepared immediately before use by adding 40 μL of PMS per mL of XTT solution. Fifty microliters of XTT/PMS was added to each well of the plate and the plate was reincubated for 4 hours at 37° C. Plates were sealed with adhesive plate sealers and shaken gently or inverted several times to mix the soluble formazan product and the plate was read spectrophotometrically at 450/650 nm with a Molecular Devices Vmax plate reader.
Raw data was collected from the Softmax Pro 4.6 software and imported into a Microsoft Excel 2003 spreadsheet for analysis by linear curve fit calculations.

[3] = human, pH 7.4, human liver microsomes, repeated assay (Table 3), read-out: t1/2 (min) Avg ± SD (n = 3)

half-life at 1 μM [1, 3]: 18.8 ± 1.5 min
Structure (SMILES): [2H]C([2H])([2H])OC(=O)N[C@H](C(=O)N[C@@H](Cc1ccccc1)[C@@H](O)CN(Cc1ccc(-c2ccccn2)cc1)NC(=O)[C@@H](NC(=O)OC([2H])([2H])[2H])C(C([2H])([2H])[2H])(C([2H])([2H])[2H])C([2H])([2H])[2H])C(C)(C)C [Compound 121, 1,14-Di(methyl-d3)(3S,8S,9S,12S)-3-[(1,1-dimethylethyl)-d9]-12-(1,1-dimethylethyl)-8-hydroxy-4,11-dioxo-9-(phenylmethyl)-6-[[4-(2-pyridinyl)phenyl]methyl]-2,5,6,10,13-pentaazatetradecanedioate]

half-life at 1 μM [1, 3]: 23.9 ± 0.3 min
Structure (SMILES): [2H]C([2H])(c1ccc(-c2ccccn2)cc1)N(C[C@H](O)[C@H](Cc1ccccc1)NC(=O)[C@@H](NC(=O)OC)C(C([2H])([2H])[2H])(C([2H])([2H])[2H])C([2H])([2H])[2H])NC(=O)[C@@H](NC(=O)OC)C(C)(C)C [Compound 111, 1,14-Dimethyl(3S,8S,9S,12S)-3-(1,1-dimethylethyl)-12-[(1,1-dimethylethyl)-d9]-8-hydroxy-4,11-dioxo-9-(phenylmethyl)-6-[[4-(2-pyridinyl)phenyl]methyl-d2]2,5,6,10,13-pentaazatetradecanedioate]

half-life at 1 μM [1, 3]: 23.9 ± 0.8 min
Structure (SMILES): [2H]C([2H])([2H])OC(=O)N[C@H](C(=O)N[C@@H](Cc1ccccc1)[C@@H](O)CN(NC(=O)[C@@H](NC(=O)OC)C(C)(C)C)C([2H])([2H])c1ccc(-c2ccccn2)cc1)C(C([2H])([2H])[2H])(C([2H])([2H])[2H])C([2H])([2H])[2H] [Compound 123, 1-Methyl-14-(methyl-d3)(3S,8S,9S,12S)-3-(1,1-dimethylethyl)-12-[(1,1-dimethylethyl)-d9]-8-hydroxy-4,11-dioxo-9-(phenylmethyl)-6-[[4-(2-pyridinyl)phenyl]methyl-2]-2,5,6,10,13-pentaazatetradecanedioate]

EC50 ([2]; +0.5 mg/mL AAGP): 1 nM | EC50 ([2]; +10 mg/mL HAS): 2 nM | EC50 ([2]; +AAGP + HSA): 2 nM | EC50 ([2]; No Serum Protein Added (cell culture medium)): 2 nM
Structure (SMILES): Cc1cn([C@H]2C[C@H](N=[N+]=[N-])[C@@H](CO)O2)c(=O)[nH]c1=O [AZT, reference compound]

half-life as compared to atazanavir ([1]; human liver microsomes, first run): increased half-life | increase in half-life as compared to atazanavir ([1]; human, 1 μM, pH 7.4): approximately 40% | half-life at 1 μM ([1]; human, pH 7.4, human liver microsomes 0.5 mg/mL, 1.0 μM test compound, first run (Table 2), read-out: T1/2 ± SD): 26.1 ± 0.99 min | half-life at 1 μM [1, 3]: 25.6 ± 0.6 min
Structure (SMILES): [2H]C([2H])([2H])C([C@H](NC(=O)OC)C(=O)N[C@@H](Cc1ccccc1)[C@@H](O)CN(Cc1ccc(-c2ccccn2)cc1)NC(=O)[C@@H](NC(=O)OC)C(C([2H])([2H])[2H])(C([2H])([2H])[2H])C([2H])([2H])[2H])(C([2H])([2H])[2H])C([2H])([2H])[2H] [Compound 106, 1,14-Dimethyl(3S,8S,9S,12S)-3,12-bis[(1,1-dimethylethyl)-d9]-8-hydroxy-4,11-dioxo-9-(phenylmethyl)-6-[[4-(2-pyridinyl)phenyl]methyl]-2,5,6,10,13-pentaazatetradecanedioate]

half-life at 1 μM [1, 3]: 30.9 ± 1.4 min
Structure (SMILES): [2H]C([2H])([2H])OC(=O)N[C@H](C(=O)N[C@@H](Cc1ccccc1)[C@@H](O)CN(NC(=O)[C@@H](NC(=O)OC([2H])([2H])[2H])C(C([2H])([2H])[2H])(C([2H])([2H])[2H])C([2H])([2H])[2H])C([2H])([2H])c1ccc(-c2ccccn2)cc1)C(C([2H])([2H])[2H])(C([2H])([2H])[2H])C([2H])([2H])[2H] [Compound 131, 1,14-Di(methyl-d3)(3S,8S,9S,12S)-3,12-bis[(1,1-dimethylethyl)-d9]-8-hydroxy-4,11-dioxo-9-(phenylmethyl)-6-[[4-(2-pyridinyl)phenyl]methyl-d2]-2,5,6,10,13-pentaazatetradecanedioate]
